Assay results taken from PubChem BioAssay AID248 (DTP/NCI, 2004).
Several values for one entry are separate records, joined by “and”; a condition that tells them apart may be missing. Identical values can stand only once. Toxic doses and inconclusive results are not listed. Rule as the data show it: active = T/C of 150% or more; inactive = T/C below 125%.

Test system: L1210 leukemia ip in BDF1 mice, survival T/C
Assay: NCI In Vivo Anticancer Drug Screen. Data for tumor model L1210 Leukemia (intraperitoneal) in B6D2F1 (BDF1) mice
Settings: higher = longer survival
In short: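 Tumor was transplanted into mice, which were then dosed with test compound or vehicle alone. Survival was recorded for each group, and the treated figure was expressed relative to the control figure.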

[1] = endpoint: mean survival time, dose: 100.0 mg/kg/injection, schedule: Q04DX003 (ip), vehicle: Klucel (hydroxypropylcellulose) (HPC)
[2] = endpoint: mean survival time, dose: 200.0 mg/kg/injection, schedule: Q04DX003 (ip), vehicle: Klucel (hydroxypropylcellulose) (HPC)
[3] = endpoint: mean survival time, dose: 100.0 mg/kg/injection, schedule: Q04DX003 (ip), vehicle: saline
[4] = endpoint: mean survival time, dose: 200.0 mg/kg/injection, schedule: Q04DX003 (ip), vehicle: saline
[5] = endpoint: mean survival time, dose: 400.0 mg/kg/injection, schedule: Q04DX003 (ip), vehicle: saline
[6] = endpoint: mean survival time, dose: 100.0 mg/kg/injection, schedule: Q04DX002 (ip), vehicle: saline with Tween-80
[7] = endpoint: mean survival time, dose: 200.0 mg/kg/injection, schedule: Q04DX002 (ip), vehicle: saline with Tween-80
[8] = endpoint: mean survival time, dose: 400.0 mg/kg/injection, schedule: Q04DX002 (ip), vehicle: saline with Tween-80
[9] = endpoint: mean survival time, dose: 100.0 mg/kg/injection, schedule: Q04DX003 (ip), vehicle: saline with Tween-80
[10] = endpoint: mean survival time, dose: 200.0 mg/kg/injection, schedule: Q04DX003 (ip), vehicle: saline with Tween-80
[11] = endpoint: mean survival time, dose: 400.0 mg/kg/injection, schedule: Q04DX003 (ip), vehicle: saline with Tween-80

Measured: T/C

Cc1c2ccncc2cc2c3ccccc3n(C)c12
inactive: endpoint: mean survival time, dose: 37.5 mg/kg/injection, schedule: Q04DX003 (ip), vehicle: Klucel (hydroxypropylcellulose) (HPC) 98 % of control | endpoint: mean survival time, dose: 75.0 mg/kg/injection, schedule: Q04DX003 (ip), vehicle: Klucel (hydroxypropylcellulose) (HPC) 103 % of control | endpoint: mean survival time, dose: 150.0 mg/kg/injection, schedule: Q04DX003 (ip), vehicle: Klucel (hydroxypropylcellulose) (HPC) 102 % of control | endpoint: mean survival time, dose: 300.0 mg/kg/injection, schedule: Q04DX003 (ip), vehicle: Klucel (hydroxypropylcellulose) (HPC) 115 % of control

N#CCCNc1cccc(Cl)c1
inactive: [1] 94 % of control | [2] 109 % of control | endpoint: mean survival time, dose: 400.0 mg/kg/injection, schedule: Q04DX003 (ip), vehicle: Klucel (hydroxypropylcellulose) (HPC) 96 % of control

CCOC(=O)CCC(NC(=O)c1cc([N+](=O)[O-])cc([N+](=O)[O-])c1)C(=O)OCC (stereo unspecified)
inactive: [3] 100 % of control | [4] 97 % of control | [5] 97 % of control

Cc1cc(C)cc(-n2cccc2C(=O)O)c1
inactive: endpoint: mean survival time, dose: 100.0 mg/kg/injection, schedule: Q04DX002 (ip), vehicle: Klucel (hydroxypropylcellulose) (HPC) 89 % of control | endpoint: mean survival time, dose: 200.0 mg/kg/injection, schedule: Q04DX002 (ip), vehicle: Klucel (hydroxypropylcellulose) (HPC) 86 % of control | endpoint: mean survival time, dose: 400.0 mg/kg/injection, schedule: Q04DX002 (ip), vehicle: Klucel (hydroxypropylcellulose) (HPC) 96 % of control

N#CCc1nn(-c2ccccc2)c(N)c1C#N
inactive: endpoint: mean survival time, dose: 25.0 mg/kg/injection, schedule: Q01DX001 (ip), vehicle: Klucel (hydroxypropylcellulose) (HPC) 93 % of control | endpoint: mean survival time, dose: 50.0 mg/kg/injection, schedule: Q01DX001 (ip), vehicle: Klucel (hydroxypropylcellulose) (HPC) 100 % of control | endpoint: mean survival time, dose: 100.0 mg/kg/injection, schedule: Q01DX001 (ip), vehicle: Klucel (hydroxypropylcellulose) (HPC) 107 % of control and 91 % of control | endpoint: mean survival time, dose: 150.0 mg/kg/injection, schedule: Q01DX001 (ip), vehicle: Klucel (hydroxypropylcellulose) (HPC) 97 % of control

COc1cc2c(cc1NC(=O)C(F)(F)F)-c1ccc(NC(=O)C(F)(F)F)cc1C2
inactive: endpoint: mean survival time, dose: 75.0 mg/kg/injection, schedule: Q01DX001 (ip), vehicle: carboxymethylcellulose (CMC) 88 % of control | endpoint: mean survival time, dose: 150.0 mg/kg/injection, schedule: Q01DX001 (ip), vehicle: carboxymethylcellulose (CMC) 98 % of control | endpoint: mean survival time, dose: 300.0 mg/kg/injection, schedule: Q01DX001 (ip), vehicle: carboxymethylcellulose (CMC) 90 % of control

C1=CC2(CCC13CS3)CS2 (stereo unspecified)
inactive: [6] 91 % of control | [7] 88 % of control | [8] 91 % of control

Cc1ccc2cc(-c3ccc(C4CCCCC4)cc3)c(N=O)n2c1
inactive: endpoint: mean survival time, dose: 50.0 mg/kg/injection, schedule: Q01DX001 (ip), vehicle: carboxymethylcellulose (CMC) 93 % of control | endpoint: mean survival time, dose: 100.0 mg/kg/injection, schedule: Q01DX001 (ip), vehicle: carboxymethylcellulose (CMC) 96 % of control | endpoint: mean survival time, dose: 200.0 mg/kg/injection, schedule: Q01DX001 (ip), vehicle: carboxymethylcellulose (CMC) 90 % of control | endpoint: mean survival time, dose: 400.0 mg/kg/injection, schedule: Q01DX001 (ip), vehicle: carboxymethylcellulose (CMC) 90 % of control

C/C=C(/Cl)C(=O)O
inactive: endpoint: mean survival time, dose: 5.0 mg/kg/injection, schedule: Q01DX001 (ip), vehicle: saline 100 % of control | endpoint: mean survival time, dose: 10.0 mg/kg/injection, schedule: Q01DX001 (ip), vehicle: saline 97 % of control | endpoint: mean survival time, dose: 20.0 mg/kg/injection, schedule: Q01DX001 (ip), vehicle: saline 97 % of control | endpoint: mean survival time, dose: 40.0 mg/kg/injection, schedule: Q01DX001 (ip), vehicle: saline 103 % of control | endpoint: mean survival time, dose: 80.0 mg/kg/injection, schedule: Q01DX001 (ip), vehicle: saline 103 % of control

O=S(=O)(Nc1ccccc1)c1ccccc1CC(O)(c1ccccc1)c1ccccc1
inactive: endpoint: mean survival time, dose: 100.0 mg/kg/injection, schedule: Q01DX001 (ip), vehicle: steriod suspending solution 95 % of control | endpoint: mean survival time, dose: 200.0 mg/kg/injection, schedule: Q01DX001 (ip), vehicle: steriod suspending solution 93 % of control | endpoint: mean survival time, dose: 400.0 mg/kg/injection, schedule: Q01DX001 (ip), vehicle: steriod suspending solution 87 % of control

C1=COC(C2NCCCN2)CC1 (stereo unspecified)
inactive: endpoint: mean survival time, dose: 100.0 mg/kg/injection, schedule: Q01DX001 (ip), vehicle: saline 102 % of control | endpoint: mean survival time, dose: 200.0 mg/kg/injection, schedule: Q01DX001 (ip), vehicle: saline 111 % of control | endpoint: mean survival time, dose: 400.0 mg/kg/injection, schedule: Q01DX001 (ip), vehicle: saline 106 % of control

CNCC(=O)NC(CO)C(=O)NC1C(C(N)=O)OC(n2ccc(N)nc2=O)C(O)C1O (stereo unspecified)
inactive: endpoint: median survival time, dose: 0.75 mg/kg/injection, schedule: Q04DX003 (ip), vehicle: saline 96 % of control | endpoint: median survival time, dose: 1.5 mg/kg/injection, schedule: Q04DX003 (ip), vehicle: saline 101 % of control | endpoint: median survival time, dose: 3.0 mg/kg/injection, schedule: Q04DX003 (ip), vehicle: saline 94 % of control

c1ccc(P(N2CCOCC2)N2CCOCC2)cc1
inactive: [6] 93 % of control | [7] 97 % of control | [8] 97 % of control

O=C(O)CCC(=O)c1ccc(Br)cc1
inactive: endpoint: mean survival time, dose: 50.0 mg/kg/injection, schedule: Q01DX009 (ip), vehicle: Klucel (hydroxypropylcellulose) (HPC) 100 % of control | endpoint: mean survival time, dose: 100.0 mg/kg/injection, schedule: Q01DX009 (ip), vehicle: Klucel (hydroxypropylcellulose) (HPC) 95 % of control | endpoint: mean survival time, dose: 200.0 mg/kg/injection, schedule: Q01DX009 (ip), vehicle: Klucel (hydroxypropylcellulose) (HPC) 101 % of control

O=C(NC(=S)Nc1nc(-c2ccccc2)cs1)c1ccccc1
inactive: endpoint: mean survival time, dose: 100.0 mg/kg/injection, schedule: Q01DX001 (ip), vehicle: gum acacia 95 % of control | endpoint: mean survival time, dose: 200.0 mg/kg/injection, schedule: Q01DX001 (ip), vehicle: gum acacia 103 % of control | endpoint: mean survival time, dose: 400.0 mg/kg/injection, schedule: Q01DX001 (ip), vehicle: gum acacia 103 % of control

Cc1n(CCBr)c([N+](=O)[O-])c[n+]1C1N=C(c2ccccc2)c2cc(Cl)ccc2NC1=O (stereo unspecified)
inactive: [1] 101 % of control | [2] 94 % of control

CCOC(=O)c1nc2nc(Cl)c(Cl)nc2[nH]1
inactive: endpoint: mean survival time, dose: 12.5 mg/kg/injection, schedule: Q04DX003 (ip), vehicle: saline 102 % of control | endpoint: mean survival time, dose: 25.0 mg/kg/injection, schedule: Q01DX009 (ip), vehicle: saline 107 % of control | endpoint: mean survival time, dose: 25.0 mg/kg/injection, schedule: Q04DX003 (ip), vehicle: saline 100 % of control | endpoint: mean survival time, dose: 50.0 mg/kg/injection, schedule: Q01DX009 (ip), vehicle: saline 105 % of control | endpoint: mean survival time, dose: 50.0 mg/kg/injection, schedule: Q04DX003 (ip), vehicle: saline 105 % of control | endpoint: mean survival time, dose: 100.0 mg/kg/injection, schedule: Q01DX009 (ip), vehicle: saline 96 % of control | [3] 99 % of control | [4] 98 % of control | [5] 96 % of control

Cc1nc([Se]c2nc(C)n3ccncc23)c2cnccn12
inactive: [9] 98 % of control | [10] 95 % of control | [11] 93 % of control

O=C(/C=C/C=C/c1ccccc1)c1ccccc1O
inactive: endpoint: mean survival time, dose: 50.0 mg/kg/injection, schedule: Q01DX009 (ip), vehicle: saline with Tween-80 91 % of control | endpoint: mean survival time, dose: 100.0 mg/kg/injection, schedule: Q01DX009 (ip), vehicle: saline with Tween-80 87 % of control and 89 % of control | [9] 94 % of control | endpoint: mean survival time, dose: 200.0 mg/kg/injection, schedule: Q01DX009 (ip), vehicle: saline with Tween-80 94 % of control | [10] 91 % of control | endpoint: mean survival time, dose: 400.0 mg/kg/injection, schedule: Q01DX009 (ip), vehicle: saline with Tween-80 89 % of control | [11] 93 % of control
